Data: patent US20180136216A1, “Biomarkers for a Combination Therapy Comprising Lenvatinib and Everolimus” (EISAI R&D MANAGEMENT CO., LTD., priority 2015, published 2018)

Tested on: metastatic renal cell carcinoma (RCC)
Assay: Phase 2 study (NCT01136733) of lenvatinib, everolimus or the combination; baseline serum Ang2 versus OS and PFS
Type: in vivo, human
Protocol: Purpose: A Phase 2 study for lenvatinib was performed in patients with metastatic renal cell carcinoma (RCC) following a VEGF-targeted therapy. The importance of angiogenesis in RCC highlights the need to understand clinical mechanisms of escape from anti-angiogenic therapy, such as everolimus. This clinical biomarker analysis was conducted to identify predictive markers of clinical benefit in RCC patients upon the combination therapy with lenvatinib and everolimus compared to everolimus monotherapy.
The purpose of this analysis was to measure Ang2 level in blood samples, such as serum, obtained from patients in clinical trials at both pre- and post-treatment with lenvatinib, everolimus or the combination thereof, and to identify blood biomarkers which can be used to predict whether patients will need the combination therapy.
Materials and Methods: Patients having metastatic renal cell carcinoma after a prior VEGF-targeted therapy received lenvatinib mesylate (“lenvatinib”), everolimus, or the combination thereof until disease progression or development of unmanageable toxicities. Patients received lenvatinib at a dose of 24 mg (as lenvatinib free base; the same shall apply hereinafter) oral once daily, everolimus at a dose of 10 mg oral once daily, or lenvatinib at 18 mg and everolimus at 5 mg oral once daily. 153 patients were treated and evaluated for efficacy and molecular correlative analysis. This study was a part of a Phase 2 multicenter study of lenvatinib (NCT01136733). Pre- and post-treatment serum samples were collected for biomarker analysis. Serum samples were collected on Cycle 1 Day 1 (pre-treatment), Cycle 2 Day 15, and Day 1 of every cycle from Cycle 2, and at off-treatment. Each Cycle consisted of 4 weeks (28 days). Ang2 detection enzyme immunoassay kit (EIDIA Co., Ltd.) was used for the quantification of serum Ang2 level. The association between the concentration at Cycle 1 Day 1 (“baseline level”) of Ang2 and clinical outcomes, such as progression free survival (PFS) and overall survival (OS), was assessed. PFS is defined as the time from the date of randomization to the date of first documentation of disease progression or death, whichever occurs first. PFS was based on investigator review data using RECIST 1.1. OS is defined as the time from randomization until death from any cause. “Randomization” means randomization of a patient into a test group or a control group when therapy plan for a patient is determined.

[1] = low baseline Ang2 (≤3760 pg/ml)

CO[C@H]1C[C@@H]2CC[C@@H](C)[C@@](O)(O2)C(=O)C(=O)N2CCCC[C@H]2C(=O)O[C@H]([C@H](C)C[C@@H]2CC[C@@H](OCCO)[C@H](OC)C2)CC(=O)[C@H](C)/C=C(\C)[C@@H](O)[C@@H](OC)C(=O)[C@H](C)C[C@H](C)/C=C/C=C/C=C/1C [everolimus, (1R,9S,12S,15R,16E,18R,19R,21R,23S,24E,26E,28E,30S,32S,35R)-1,18-dihydroxy-12-{(1R)-2-[(1S,3R,4R)-4-(2-hydroxyethoxy)-3-methoxycyclohexyl]-1-methylethyl}-19,30-dimethoxy-15,17,21,23,29,35-hexamethyl-11,36-dioxa-4-aza-tricyclo[30.3.1.0^4,9]hexatriaconta-16,24,26,28-tetraene-2,3,10,14,20-pentaone]
median PFS (high baseline Ang2 (>3760 pg/ml)): 5.5 months | median OS (high baseline Ang2 (>3760 pg/ml, 33rd percentile cut-off)): 12.2 months | median OS (higher baseline Ang2, 25th percentile cut-off (3565 pg/ml)): 12.2 months | median OS (higher baseline Ang2, 70th percentile cut-off (5650 pg/ml)): 12.2 months | median OS [1]: not reached | median PFS [1]: 5.6 months
